US20130190289A1, “COMPOUNDS AND METHODS FOR THE TREATMENT OR PREVENTION OF FLAVIVIRUS INFECTIONS” (priority 2010, published 2013)
Read-outs that look alike come from different tables or passages of the source.

Assays:
[1] = tested on: HCV replicon (genotype 1b) in Huh7 cell line ET; assay: microbe, parasite or virus in culture; format: cell-based, HCV genotype 1b; details: Hepatitis C virus
[2] = [3H]Thymidine incorporation assay (cell toxicity); details: human
[3] = Huh-7, read-out: HCV-Replicon-(Luci-ET) 1b_IC50
[4] = Huh-7, 96 h, read-out: HCV-Replicon (Luci-ET)-1b_IC50

Compound | IC50 [1, 3] | CC50 at 72 h [2] | IC50 [1, 4]
COC1CN(C(=O)C[C@H](C)N(c2cc(C#CC(C)(C)C)sc2C(=O)O)C(=O)[C@H]2CC[C@H](C)CC2)C1 [Compound 116, 5-(3,3-Dimethylbut-1-ynyl)-3-[[(1S)-3-(3-methoxyazetidin-1-yl)-1-methyl-3-oxo-propyl]-(trans-4-methylcyclohexanecarbonyl)amino]thiophene-2-carboxylic acid] | < 100 nM | > 100000 nM | –
Cc1ccc(C(=O)N(CC(=O)N2CCOCC2)c2cc(C#CC(C)(C)C)sc2C(=O)O)cc1 [Compound 125, 5-(3,3-dimethylbut-1-ynyl)-3-[(4-methylbenzoyl)-(2-morpholino-2-oxo-ethyl)amino]thiophene-2-carboxylic acid] | – | > 100000 nM | 100 to 1000 nM
COC(C)(C)C#Cc1cc(N(CC(=O)N2CCOCC2)C(=O)[C@H]2CC[C@H](C)CC2)c(C(=O)O)s1 [Compound 129, 5-(3-methoxy-3-methyl-but-1-ynyl)-3-[(trans-4-methylcyclohexanecarbonyl)-(2-morpholino-2-oxo-ethyl)amino]thiophene-2-carboxylic acid] | – | > 100000 nM | 100 to 1000 nM
COCCN(C)C(=O)[C@H](C)N(c1cc(C#CC(C)(C)C)sc1C(=O)O)C(=O)[C@H]1CC[C@H](C)CC1 [Compound 38, 5-(3,3-Dimethylbut-1-ynyl)-3-[[(1S)-2-[2-methoxyethyl(methyl)amino]-1-methyl-2-oxo-ethyl]-(trans-4-methylcyclohexanecarbonyl)amino]thiophene-2-carboxylic acid] | < 100 nM | > 100000 nM | –
CNC(=O)CN(C(=O)C1CCC(C)CC1)c1cc(C#CC(C)C)sc1C(=O)O (stereo not drawn) [Compound 70] | < 100 nM | > 100000 nM | –
COC1CCN(C(=O)C[C@H](C)N(c2cc(C#CC(C)(C)C)sc2C(=O)O)C(=O)[C@H]2CC[C@H](C)CC2)CC1 [Compound 115, 5-(3,3-Dimethylbut-1-ynyl)-3-[[(1S)-3-(4-methoxy-1-piperidyl)-1-methyl-3-oxo-propyl]-(trans-4-methylcyclohexanecarbonyl)amino]thiophene-2-carboxylic acid] | < 100 nM | > 100000 nM | –
CC1CCC(C(=O)N(c2cc(C#CC(C)(C)C)sc2C(=O)O)[C@@H]2CCN(C)C2=O)CC1 (single isomer, unassigned) [Compound 92] | < 100 nM | > 100000 nM | –
CO[C@H](C)[C@@H](C(=O)N1CCOCC1)N(c1cc(C#CC(C)(C)C)sc1C(=O)O)C(=O)[C@H]1CC[C@H](C)CC1 [Compound 58, 5-(3,3-Dimethylbut-1-ynyl)-3-[[(1S,2R)-2-methoxy-1-(morpholine-4-carbonyl)propyl]-(trans-4-methylcyclohexanecarbonyl)amino]thiophene-2-carboxylic acid] | < 100 nM | > 100000 nM | –
CC(C)(C)C#Cc1cc(N(CC(=O)N2CCCCC2)C(=O)[C@H]2CC[C@H](C)CC2)c(C(=O)O)s1 [Compound 46] | < 100 nM | > 100000 nM | –
CC(CC(=O)N1CCCC1)N(c1cc(C#CC(C)(C)C)sc1C(=O)O)C(=O)[C@H]1CC[C@H](C)CC1 (relative stereo) [Compound 101, 5-(3,3-dimethylbut-1-yn-1-yl)-3-((trans)-4-methyl-N-(4-oxo-4-(pyrrolidin-1-yl)butan-2-yl)cyclohexanecarboxamido)thiophene-2-carboxylic acid] | < 100 nM | 10000 to 100000 nM | –
C[C@H](CN(c1cc(C#CC(C)(C)C)sc1C(=O)O)C(=O)[C@H]1CC[C@H](C)CC1)C(=O)N1CCOCC1 [Compound 109, 5-(3,3-dimethylbut-1-ynyl)-3-[(trans-4-methylcyclohexanecarbonyl)-[(2R)-2-methyl-3-morpholino-3-oxo-propyl]amino]thiophene-2-carboxylic acid] | < 100 nM | > 100000 nM | –
CC(C)[C@@H](C(=O)N1CCOCC1)N(c1cc(C#CC(C)(C)C)sc1C(=O)O)C(=O)[C@H]1CC[C@H](C)CC1 [Compound 85, 5-(3,3-Dimethylbut-1-ynyl)-3-[(trans-4-methylcyclohexanecarbonyl)-[(1S)-2-methyl-1-(morpholine-4-carbonyl)propyl]amino]thiophene-2-carboxylic acid] | < 100 nM | 10000 to 100000 nM | –
C[C@@H](CC(=O)N(C)C1CCN(C)CC1)N(c1cc(C#CC(C)(C)C)sc1C(=O)O)C(=O)[C@H]1CC[C@H](C)CC1 [Compound 113, 5-(3,3-Dimethylbut-1-ynyl)-3-[(trans-4-methylcyclohexanecarbonyl)-[(1S)-1-methyl-3-[methyl-(1-methyl-4-piperidyl)amino]-3-oxo-propyl]amino]thiophene-2-carboxylic acid] | < 100 nM | > 100000 nM | –
CC(C)(C)C#Cc1cc(N(CC(=O)N2CCSCC2)C(=O)[C@H]2CC[C@H](C)CC2)c(C(=O)O)s1 [Compound 127, 5-(3,3-dimethylbut-1-ynyl)-3-[(trans-4-methylcyclohexanecarbonyl)-(2-oxo-2-thiomorpholino-ethyl)amino]thiophene-2-carboxylic acid] | – | 10000 to 100000 nM | < 100 nM
CCN(CC)C(=O)[C@H](C)N(c1cc(C#CC(C)(C)C)sc1C(=O)O)C(=O)[C@H]1CC[C@H](C)CC1 [Compound 8, 3-[[(1S)-2-(diethylamino)-1-methyl-2-oxo-ethyl]-(trans-4-methylcyclohexanecarbonyl)amino]-5-(3,3-dimethylbut-1-ynyl)thiophene-2-carboxylic acid] | < 100 nM | > 100000 nM | –
C[C@H]1CC[C@H](C(=O)N(CC(=O)N2CCOCC2)c2cc(-c3ccc(Oc4ccccc4)cc3)sc2C(=O)O)CC1 [Compound 151, 3-[(trans-4-methylcyclohexanecarbonyl)-(2-morpholino-2-oxo-ethyl)amino]-5-(4-phenoxyphenyl)thiophene-2-carboxylic acid] | – | 10000 to 100000 nM | 100 to 1000 nM
C[C@@H](C(=O)NC1CCOCC1)N(c1cc(C#CC(C)(C)C)sc1C(=O)O)C(=O)[C@H]1CC[C@H](C)CC1 [Compound 19, 5-(3,3-Dimethylbut-1-ynyl)-3-[(trans-4-methylcyclohexanecarbonyl)-[(1S)-1-methyl-2-oxo-2-(tetrahydropyran-4-ylamino)ethyl]amino]thiophene-2-carboxylic acid] | < 100 nM | > 100000 nM | –
C[C@@H](C(=O)N1CC[C@H](CO)C1)N(c1cc(C#CC(C)(C)C)sc1C(=O)O)C(=O)[C@H]1CC[C@H](C)CC1 [Compound 39, 5-(3,3-Dimethylbut-1-ynyl)-3-[[(1S)-2-[(3S)-3-(hydroxymethyl)pyrrolidin-1-yl]-1-methyl-2-oxo-ethyl]-(trans-4-methylcyclohexanecarbonyl)amino]thiophene-2-carboxylic acid] | < 100 nM | > 100000 nM | –
CCOC[C@@H](C(=O)N1CCOCC1)N(c1cc(C#CC(C)(C)C)sc1C(=O)O)C(=O)[C@H]1CC[C@H](C)CC1 [Compound 87, 5-(3,3-Dimethylbut-1-ynyl)-3-[[(1S)-1-(ethoxymethyl)-2-morpholino-2-oxo-ethyl]-(trans-4-methylcyclohexanecarbonyl)amino]thiophene-2-carboxylic acid] | < 100 nM | > 100000 nM | –
CC(C)C#Cc1cc(N(CC(=O)N(C)C)C(=O)C2CCC(C)CC2)c(C(=O)O)s1 (stereo not drawn) [Compound 67] | < 100 nM | > 100000 nM | –
C[C@@H]1CN(C(=O)[C@H](C)N(c2cc(C#CC(C)(C)C)sc2C(=O)O)C(=O)[C@H]2CC[C@H](C)CC2)C[C@H](C)O1 [Compound 48, 5-(3,3-Dimethylbut-1-ynyl)-3-[[(1S)-2-[(2R,6S)-2,6-dimethylmorpholin-4-yl]-1-methyl-2-oxo-ethyl]-(trans-4-methylcyclohexanecarbonyl)amino]thiophene-2-carboxylic acid] | < 100 nM | 10000 to 100000 nM | –
C[C@@H](C(=O)NC1CCOC1)N(c1cc(C#CC(C)(C)C)sc1C(=O)O)C(=O)[C@H]1CC[C@H](C)CC1 (stereo partly drawn) [Compound 30, 5-(3,3-Dimethylbut-1-ynyl)-3-[(trans-4-methylcyclohexanecarbonyl)-[(1S)-1-methyl-2-oxo-2-(tetrahydrofuran-3-ylamino)ethyl]amino]thiophene-2-carboxylic acid] | < 100 nM | > 100000 nM | –
CC1CN(C(=O)[C@H](C)N(c2cc(C#CC(C)(C)C)sc2C(=O)O)C(=O)[C@H]2CC[C@H](C)CC2)CCO1 (stereo partly drawn) [Compound 49, 5-(3,3-Dimethylbut-1-ynyl)-3-[(trans-4-methylcyclohexanecarbonyl)-[(1S)-1-methyl-2-(2-methylmorpholin-4-yl)-2-oxo-ethyl]amino]thiophene-2-carboxylic acid] | < 100 nM | > 100000 nM | –
CN(C(=O)CN(c1cc(C#CC(C)(C)C)sc1C(=O)O)C(=O)[C@H]1CC[C@H](C)CC1)C1CCOCC1 [Compound 43] | < 100 nM | > 100000 nM | –
CC(C)(C)C#Cc1cc(N(C(=O)[C@H]2CC[C@H](C)CC2)[C@H]2CCNC2=O)c(C(=O)O)s1 [Compound 120, 5-(3,3-dimethylbut-1-ynyl)-3-[(trans-4-methylcyclohexanecarbonyl)-[(3S)-2-oxopyrrolidin-3-yl]amino]thiophene-2-carboxylic acid] | 100 to 1000 nM | – | –
CN1CCN(C(=O)CN(c2cc(C#CC(C)(C)C)sc2C(=O)O)C(=O)[C@H]2CC[C@H](C)CC2)CC1 [Compound 119, 5-(3,3-dimethylbut-1-ynyl)-3-[(trans-4-methylcyclohexanecarbonyl)-[2-(4-methylpiperazin-1-yl)-2-oxo-ethyl]amino]thiophene-2-carboxylic acid] | < 100 nM | – | –
CN(C)CCN(C)C(=O)CN(c1cc(C#CC(C)(C)C)sc1C(=O)O)C(=O)[C@H]1CC[C@H](C)CC1 [Compound 118, 3-[[2-[2-Dimethylaminoethyl(methyl)amino]-2-oxo-ethyl]-(trans-4-methylcyclohexanecarbonyl)amino]-5-(3,3-dimethylbut-1-ynyl)thiophene-2-carboxylic acid] | < 100 nM | – | –
